US6399654B1, “Biflavanoids and derivatives thereof as antiviral agents” (priority 1995, dated 2002)
In brackets after ≈: the same amount, converted by molar mass. Several values for one entry are separate records, joined by “and”; a condition that tells them apart may be missing. Equal entries are not always repeated. Where two headings read alike, the source gives them in different places.

Assays:
[1] = system: Influenza A (H1N1) Texas/36/91; assay: microbe, parasite or virus in culture; format: cell-based, influenza A virus; details: Influenza A virus, MDCK; Influenza A (H1N1) Texas/36/91; read-out: CPE Inhibition EC50
[2] = system: Influenza A (H1N1) Texas/36/91; assay: microbe, parasite or virus in culture; format: cell-based, influenza A virus; details: Influenza A virus, MDCK; Influenza A (H1N1) Texas/36/91; read-out: Neutral Red EC50
[3] = system: Influenza A (H3N2) Beijing/32/92; assay: microbe, parasite or virus in culture; format: cell-based, influenza A virus; details: Influenza A virus, MDCK; Influenza A (H3N2) Beijing/32/92; read-out: CPE Inhibition EC50
[4] = system: Influenza A (H3N2) Beijing/32/92; assay: microbe, parasite or virus in culture; format: cell-based, influenza A virus; details: Influenza A virus, MDCK; Influenza A (H3N2) Beijing/32/92; read-out: Neutral Red EC50
[5] = system: Influenza B Panama/45/90; assay: microbe, parasite or virus in culture; format: cell-based; details: Influenza B virus, MDCK, read-out: CPE Inhibition EC50
[6] = system: Influenza B Panama/45/90; assay: microbe, parasite or virus in culture; format: cell-based; details: Influenza B virus, MDCK, read-out: Neutral Red EC50
[7] = system: Measles Virus; assay: microbe, parasite or virus in culture; format: cell-based; details: Measles morbillivirus, BSC-1; Measles Virus; read-out: CPI Inhibition EC50
[8] = system: Measles Virus; assay: Measles virus neutral red dye uptake in BSC-1 cells; format: cell-based; details: Measles morbillivirus, BSC-1
[9] = system: Adenovirus Type 5; assay: microbe, parasite or virus in culture; format: cell-based; details: Human mastadenovirus C, A549, read-out: CPE Inhibition EC50
[10] = system: Adenovirus Type 5; assay: Adenovirus type 5 neutral red dye uptake in A549 cells; format: cell-based; details: Human mastadenovirus C, A549, read-out: Neutral Red EC50
[11] = system: Parainfluenza Type 3 Virus; assay: organism not typed; format: cell-based; details: MA104; Parainfluenza Type 3 Virus; read-out: CPI Inhibition EC50
[12] = system: Parainfluenza Type 3 Virus; assay: organism not typed; format: cell-based; details: MA104, read-out: Neutral Red EC50
[13] = system: Respiratory Syncytial Virus; assay: microbe, parasite or virus in culture; format: cell-based; details: human respiratory syncytial virus, MA104; read-out: Neutral Red EC50
[14] = target: T1, HIV-1 RT (Human immunodeficiency virus type 1 group M subtype B, UniProt P03366); assay: Anti-HIV-1 RT assay (recombinant enzyme); format: biochemical
T1 construct: made in house; host or cells: Escherichia coli

[15] = system: HIV-1 (strain LAV-1); assay: microbe, parasite or virus in culture; format: cell-based
[16] = system: African green monkey kidney (MA-104) cells
[17] = system: human PBM cells
[18] = in vitro; details: dog
[19] = in vitro; details: dog, Neutral Red IC50 (cytotoxic)
[20] = in vitro; details: African green monkey
[21] = in vitro; details: African green monkey, Neutral Red IC50 (cytotoxic)
[22] = in vitro; details: human
[23] = in vitro; details: human; remark: listed apart in the source
[24] = system: HCMV; assay: HCMV CPE inhibition in HFF cells
[25] = system: HSV-1; assay: HSV-1 CPE inhibition in HFF cells
[26] = system: HSV-2; assay: HSV-2 CPE inhibition in HFF cells
[27] = system: VZV; assay: VZV plaque reduction assay in HFF cells
[28] = system: Hepatitis B Virus (HBV); assay: Inhibition of HBV replication in 2.2.15 cells, extracellular (virion) HBV DNA; details: Hepatitis B virus, 216 h;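 note: extracellular virion HBV DNA in culture medium measured by slot blot hybridization with a 32P-labeled HBV probe, quantified against HBV DNA standards, after 9 days of daily dosing, compared with day 0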
Experimental: Test compounds were added daily for a nine continuous day period; the culture medium was collected and stored for analysis of extracellular (virion) HBV DNA after 0, 3, 6, and 9 days of treatment. The treated cells were lysed 24 hours following day 9 of treatment for the analysis of intracellular HBV genomic forms. The overall levels of HBV DNA (both extracellular and intracellular DNA) and the relative rate of HBV replication (intracellular DNA) were analyzed quantitatively. The analysis was performed using blot hybridization techniques and [^32P]-labeled HBV-specific probes. The HBV DNA levels were measured by comparison to known amounts of HBV DNA standards applied to every nitrocellulose membrane (gel or slot blot). An AMBIS beta scanner, which measures the radioactive decay of the hybridized probes directly from the nitrocellulose membranes, was used for the quantitative analysis. Standard curves, generated by multiple analyses, were used to correlate CPM measurements made by the beta scanner with relative levels of target HBV DNA. The levels of HBV virion DNA released into the culture medium were analyzed by a slot blot hybridization procedure. HBV DNA levels were then compared to those at day 0 to determine the effect of the test compound. A known positive drug was evaluated in parallel with test compounds in each test.
Determination of therapeutic concentrations (EC50 and EC90) and toxicity concentrations (IC50) were determined as previously described (90). Stock solutions of text drugs were prepared in DMSO. Culture medium was changed daily and analyzed for extracellular HBV DNA after nine days of continuous drug exposure. Extracellular HBV DNA was extracted from the culture media and analyzed by a slot blot hydridization technique, using a ^32P-labeled Eco RI HBV DNA fragment, as previously described (91), and quantitated via comparison to HBV standards on a nitrocellulose filter, using an AMBIS beta scanner. Toxicity was determined by measuring inhibition of neutral red dye uptake. […] Effective concentration values for individual agents are the mean of six cultures per concentration point. Toxicity values are the mean of three cultures per concentration point.

SMILES: O=c1cc(-c2ccc(Oc3c(O)cc4oc(-c5ccc(O)cc5)cc(=O)c4c3O)cc2)oc2cc(O)cc(O)c12 [Hinokiflavone (4), hinokiflavone]
- EC50 [1]: > 1 µg/mL
- EC50 [2]: 1.8 µg/mL (≈ 3.34 µM)
- EC50 [3]: > 3.2 µg/mL
- EC50 [4]: 1.9 µg/mL (≈ 3.53 µM)
- EC50 [5]: > 1 µg/mL
- EC50 [6]: 1.9 µg/mL (≈ 3.53 µM)
- EC50 [7]: < 3 µg/mL
- EC50 [8]: < 5 µg/mL
- EC50 [9]: > 10 µg/mL
- EC50 [10]: 19 µg/mL (≈ 35.3 µM)
- EC50 [11]: > 1 µg/mL
- EC50 [12]: 5 µg/mL (≈ 9.29 µM)
- EC50 [13]: > 3.2 µg/mL
- IC50 ([14]; Anti-HIV-1 RT IC50, values in parentheses or in words): 62 µM
- IC50 ([14]; HIV-1 RT IC50 (50% inhibition dose)): 65.4 µM and 62.6 µM
- inhibition at 200 µg/mL ([14]; read-out: Anti-HIV-1 RT % Inhibition at 200 μg/ml): 89%
- EC50 ([15]; Human immunodeficiency virus 1, PBMC, human PBM cells infected with HIV-1 (strain LAV), read-out: Ant-HIV-1 in PBM cells EC50): 4.1 µM
- Selective Index (SI) ([15]; PBM cells): <1
- Neutral Red IC50 (cytotoxic) [16]: 7 µg/mL
- toxicity against uninfected PHA-stimulated human PBM cells (in words) [17]: high toxicity
- IC50 ([18]; CPE Inhibition IC50 (50% cell inhibitory (cytotoxic) concentration), Influenza A (H1N1) test): 1.4 µg/mL (≈ 2.6 µM)
- IC50 ([18]; CPE Inhibition IC50 (cytotoxic), Influenza A (H3N2) test): 1.3 µg/mL (≈ 2.41 µM)
- IC50 ([18]; CPE Inhibition IC50 (cytotoxic), Influenza B test): 1.2 µg/mL (≈ 2.23 µM)
- IC50 ([19]; Influenza A (H1N1) test): 2 µg/mL (≈ 3.71 µM)
- IC50 ([19]; Influenza A (H3N2) test): 2.2 µg/mL (≈ 4.09 µM)
- IC50 ([19]; Influenza B test): 2 µg/mL (≈ 3.71 µM)
- IC50 ([20]; CPE Inhibition IC50 (cytotoxic), Respiratory Syncytial Virus test): 2.5 µg/mL (≈ 4.64 µM)
- IC50 ([20]; CPI Inhibition IC50 (cytotoxic), Parainfluenza Type 3 Virus test): 1 µg/mL (≈ 1.86 µM)
- IC50 [21]: 6 µg/mL (≈ 11.1 µM)
- IC50 [22]: 9.1 µM
- CC50 at 14 days ([23]; HCMV CPE Inhibition CC50): 2.6 µg/mL (≈ 4.83 µM)
- CC50 at 3 days ([23]; HSV-1 CPE Inhibition CC50): 77.7 µg/mL (≈ 144 µM)
- CC50 at 3 days ([23]; HSV-2 CPE Inhibition CC50): 77.5 µg/mL (≈ 144 µM)
- CC50 at 10 days ([23]; VZV Plaque Reduction CC50): 16.8 µg/mL (≈ 31.2 µM)
- HCMV SI (CC50/EC50) ([24]; HFF Cells): <3.2
- EC50 ([24]; Human betaherpesvirus 5, HFF, read-out: HCMV CPE Inhibition EC50): > 0.8 µg/mL
- HSV-1 SI (CC50/EC50) ([25]; HFF Cells): <3.9
- EC50 ([25]; Human alphaherpesvirus 1, HFF, read-out: HSV-1 CPE Inhibition EC50): > 20 µg/mL
- HSV-2 SI (CC50/EC50) ([26]; HFF Cells): <319
- EC50 ([26]; Human alphaherpesvirus 2, HFF, read-out: HSV-2 CPE Inhibition EC50): > 20 µg/mL
- VZV SI (CC50/EC50) ([27]; HFF Cells): <4.2
- EC50 ([27]; Human alphaherpesvirus 3, HFF, read-out: VZV Plaque Reduction EC50): > 4 µg/mL
- EC50 ([28]; read-out: EC50 (50% effective dose), HBV Virion, 2.2.15 cells, extracellular (virion) HBV DNA, 9 days treatment): > 100 µM
- EC90 ([28]; read-out: EC90 (90% effective dose), HBV Virion, 2.2.15 cells, extracellular (virion) HBV DNA, 9 days treatment): > 100 µM
